Source: the NIST ThermoML archive (doi:10.1021/je900056u)

Assays:
[1] = 101 kPa, Liquid; for speed of sound: Linear variable-path acoustic interferometer; for mass density: Pycnometric method
[2] = xn = mol fraction of the nth substance listed; settings: 101 kPa, Liquid; for speed of sound: Linear variable-path acoustic interferometer; for mass density: Pycnometric method

CC(=O)CC(C)C [4-methylpentan-2-one]
[1]
Settings | mass density [kg/m3] | speed of sound [m/s]
303.15 K | 791.7 | 1175
308.15 K | 787.7 | 1156
313.15 K | 782.6 | 1138

CC(=O)CC(C)C [4-methylpentan-2-one] + O=S1(=O)CCCC1
[2], x2 = 0
Settings | mass density [kg/m3] | speed of sound [m/s]
303.15 K | 791.7 | 1175
308.15 K | 787.7 | 1156
313.15 K | 782.6 | 1138

CCC(C)=O [butanone]
[1]
Settings | mass density [kg/m3] | speed of sound [m/s]
303.15 K | 794.6 | 1178
308.15 K | 790.4 | 1158
313.15 K | 783.1 | 1136

CCC(C)=O [butanone] + O=S1(=O)CCCC1
[2], x2 = 0
Settings | mass density [kg/m3] | speed of sound [m/s]
303.15 K | 794.6 | 1178
308.15 K | 790.4 | 1158
313.15 K | 783.1 | 1136

CCCC(C)=O [pentan-2-one]
[1]
Settings | mass density [kg/m3] | speed of sound [m/s]
303.15 K | 796.6 | 1192
308.15 K | 792.7 | 1176
313.15 K | 785.5 | 1151

CCCC(C)=O [pentan-2-one] + O=S1(=O)CCCC1
[2]
Settings | mass density, 303.15 K [kg/m3] | mass density, 308.15 K [kg/m3] | mass density, 313.15 K [kg/m3] | speed of sound, 303.15 K [m/s] | speed of sound, 308.15 K [m/s] | speed of sound, 313.15 K [m/s]
x2 = 0 | 796.6 | 792.7 | 785.5 | 1192 | 1176 | 1151
x2 = 0.0261 | 808.2 | 804.2 | 797.8 | 1203 | 1183 | 1161
x2 = 0.162 | 869.2 | 864.6 | 858.8 | 1246 | 1225 | 1203
x2 = 0.2945 | 929.2 | 924.8 | 919.1 | 1290 | 1271 | 1251
x2 = 0.445 | 998.5 | 994.6 | 989.1 | 1352 | 1340 | 1318
x2 = 0.5296 | 1038.2 | 1034.5 | 1029.1 | 1384 | 1373 | 1353
x2 = 0.6319 | 1086.6 | 1082.8 | 1078 | 1429 | 1418 | 1401
x2 = 0.7498 | 1143.2 | 1139.2 | 1134.7 | 1484 | 1469 | 1450
x2 = 0.8677 | 1200.2 | 1195.8 | 1191.6 | 1536 | 1520 | 1503
x2 = 0.9799 | 1253.2 | 1248.5 | 1243.6 | 1580 | 1562 | 1549

CCC(=O)CC [pentan-3-one]
[1]
Settings | mass density [kg/m3] | speed of sound [m/s]
303.15 K | 804.5 | 1197
308.15 K | 799.6 | 1179
313.15 K | 794.3 | 1160

CCC(=O)CC [pentan-3-one] + O=S1(=O)CCCC1
[2]
Settings | mass density, 303.15 K [kg/m3] | mass density, 308.15 K [kg/m3] | mass density, 313.15 K [kg/m3] | speed of sound, 303.15 K [m/s] | speed of sound, 308.15 K [m/s] | speed of sound, 313.15 K [m/s]
x2 = 0 | 804.5 | 799.6 | 794.3 | 1197 | 1179 | 1160
x2 = 0.0252 | 815.9 | 811.1 | 805.8 | 1208 | 1191 | 1170
x2 = 0.1627 | 878.1 | 873.1 | 867.6 | 1257 | 1240 | 1218
x2 = 0.2922 | 937.4 | 931.9 | 926.6 | 1300 | 1283 | 1263
x2 = 0.4201 | 996.2 | 991.1 | 985.6 | 1345 | 1331 | 1315
x2 = 0.5234 | 1044.1 | 1039.1 | 1033.7 | 1388 | 1376 | 1361
x2 = 0.6292 | 1093.5 | 1088.4 | 1083.1 | 1435 | 1421 | 1406
x2 = 0.7487 | 1149.4 | 1144.2 | 1139.3 | 1490 | 1473 | 1460
x2 = 0.8644 | 1202.8 | 1198.1 | 1193.2 | 1536 | 1520 | 1506
x2 = 0.9804 | 1253.5 | 1250 | 1244.6 | 1579 | 1566 | 1550

O=S1(=O)CCCC1 [sulfolane]
[1]
Settings | mass density [kg/m3] | speed of sound [m/s]
303.15 K | 1261.8 | 1588
308.15 K | 1257 | 1576
313.15 K | 1251.6 | 1558

O=S1(=O)CCCC1 [sulfolane] + CC(=O)CC(C)C
[2]
Settings | mass density, 303.15 K [kg/m3] | mass density, 308.15 K [kg/m3] | mass density, 313.15 K [kg/m3] | speed of sound, 303.15 K [m/s] | speed of sound, 308.15 K [m/s] | speed of sound, 313.15 K [m/s]
x1 = 0.0287 | 803.4 | 799.3 | 793.9 | 1185 | 1166 | 1147
x1 = 0.1852 | 866.6 | 862.5 | 856.8 | 1233 | 1215 | 1198
x1 = 0.3272 | 927.3 | 923.3 | 917.6 | 1281 | 1263 | 1247
x1 = 0.4634 | 989.2 | 985.1 | 979.7 | 1335 | 1316 | 1300
x1 = 0.5671 | 1038.9 | 1034.6 | 1029.3 | 1381 | 1361 | 1345
x1 = 0.6671 | 1088.8 | 1083.9 | 1078.5 | 1426 | 1407 | 1391
x1 = 0.7777 | 1145.1 | 1140.7 | 1134.1 | 1479 | 1463 | 1447
x1 = 0.8809 | 1198.5 | 1195.1 | 1187.8 | 1530 | 1513 | 1496
x1 = 0.9829 | 1252.3 | 1249.2 | 1242.3 | 1578 | 1564 | 1550
x1 = 1 | 1261.8 | 1257 | 1251.6 | 1588 | 1576 | 1558

O=S1(=O)CCCC1 [sulfolane] + CCC(=O)CC
[2], x1 = 1
Settings | mass density [kg/m3] | speed of sound [m/s]
303.15 K | 1261.8 | 1588
308.15 K | 1257 | 1576
313.15 K | 1251.6 | 1558

O=S1(=O)CCCC1 [sulfolane] + CCC(C)=O
[2]
Settings | mass density, 303.15 K [kg/m3] | mass density, 308.15 K [kg/m3] | mass density, 313.15 K [kg/m3] | speed of sound, 303.15 K [m/s] | speed of sound, 308.15 K [m/s] | speed of sound, 313.15 K [m/s]
x1 = 0.0293 | 810.6 | 806.2 | 799.2 | 1191 | 1170 | 1149
x1 = 0.1391 | 869.7 | 865.6 | 858.7 | 1234 | 1215 | 1195
x1 = 0.2575 | 931.6 | 927.5 | 920.9 | 1288 | 1266 | 1247
x1 = 0.3803 | 993.5 | 989.6 | 983.5 | 1341 | 1319 | 1300
x1 = 0.4834 | 1043.1 | 1039.9 | 1034.4 | 1386 | 1366 | 1346
x1 = 0.5854 | 1089.7 | 1086.6 | 1081.8 | 1431 | 1413 | 1395
x1 = 0.7119 | 1145.2 | 1142 | 1137.2 | 1481 | 1465 | 1450
x1 = 0.8428 | 1200.5 | 1196.8 | 1191.8 | 1533 | 1517 | 1502
x1 = 0.9756 | 1252.7 | 1249 | 1243.7 | 1581 | 1568 | 1552
x1 = 1 | 1261.8 | 1257 | 1251.6 | 1588 | 1576 | 1558

O=S1(=O)CCCC1 [sulfolane] + CCCC(C)=O
[2], x1 = 1
Settings | mass density [kg/m3] | speed of sound [m/s]
303.15 K | 1261.8 | 1588
308.15 K | 1257 | 1576
313.15 K | 1251.6 | 1558
